The test concerns IL-17A/A. Description: IL-17A/A HEK-Blue cell assay. As to conditions: IL-17A/A inhibition, HEK-Blue IL-17A reporter cell line, IL17A/A 5 ng/mL. Format: cell-based. A digest of the protocol:
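HEK 293 reporter cells expressing IL-17RA, IL-17RC and Act1, stimulated with 5 ng/mL IL17A/A or IL17A/F for 20 h alongside compound (10 μM to 27 pM, 0.1% DMSO). NFκB-driven SEAP in the medium read at A630 with Quanti-Blue; IC50 from 4-parameter fit.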

Setting [1] is: HEK-Blue, 20 h, SEAP read at A630, read-out: AA IC50.
Where [2] appears, read: 20 hours, SEAP read at A630, read-out: AA IC50.

As a reminder, the pIC50 is −log10 of the IC50, conventionally taken in molar units.

The structures appear in SMILES notation. pIC50: −log10 of the molar value. Like-named read-outs stand apart in the source and are kept apart here.

For `CCn1nccc1C(=O)N[C@H](c1cn2nc(C[C@@H]3C[C@@H](C)CNC3=O)c(C3CCOCC3)cc2n1)C1CCC(F)(F)CC1` [Compound 101, N—((1S)-(4,4-difluorocyclohexyl)(6-(((5R)-5-methyl-2-oxopiperidin-3-yl)methyl)-7-(tetrahydro-2H-pyran-4-yl)imidazo[1,2-b]pyridazin-2-yl)methyl)-1-ethyl-1H-pyrazole-5-carboxamide], the pIC50 under setting [1] is more than 7.00.
Consider `CCn1nccc1C(=O)N[C@H](c1cn2nc(C[C@H]3C[C@@H](C(F)(F)F)CNC3=O)c(C3CCOCC3)cc2n1)[C@H]1CCCC(F)(F)C1` [Compound 55], for which the pIC50 under setting [1] is more than 7.00.
Consider `CCn1nccc1C(=O)N[C@H](c1cn2nc(C[C@H]3C[C@@H](C(F)(F)F)CNC3=O)c(N3CCOC4(CC4)C3)cc2n1)C1CCC(F)(F)CC1` [Compound 81], for which, under setting [1], the pIC50 is more than 7.00.
For the molecule `CCn1nccc1C(=O)N[C@H](c1cn2nc(C[C@H]3C[C@@H](C(F)(F)F)CNC3=O)c(C3CCCOC3)cc2n1)C1CCC(F)(F)CC1` (stereo partly drawn) [Compound 2], under setting [2], the pIC50 is 6.00 to 7.00.
As to `CCn1nccc1C(=O)N[C@H](c1cn2nc(C[C@H]3C[C@@H](C(F)(F)F)CNC3=O)c(N3CCC(OC)C3)cc2n1)C1CCC(F)(F)CC1` (stereo partly drawn) [Compound 78], under setting [2], the pIC50 is more than 7.00.
Consider `CCn1nccc1C(=O)N[C@H](c1cn2nc(C[C@H]3C[C@@H](C(F)(F)F)CNC3=O)c(-c3cncnc3)cc2n1)C1CCC(F)(F)CC1` [Compound 4], for which the pIC50 under setting [1] is 6.00 to 7.00.
Regarding `CCn1nccc1C(=O)N[C@H](c1cn2nc(C[C@H]3C[C@@H](C(F)(F)F)CNC3=O)c(N3CCOC(C)C3)cc2n1)C1CCC(F)(F)CC1` (stereo partly drawn) [Compound 34], the pIC50 under setting [2] is more than 7.00.
As for `O=C(N[C@H](c1cn2nc(C[C@H]3C[C@@H](C(F)(F)F)CNC3=O)c([C@H]3CCOC3)cc2n1)C1CCC(F)(F)CC1)c1nonc1C1CC1` [Compound 44], the pIC50 under setting [1] is more than 7.00.
With `CCn1nccc1C(=O)N[C@H](c1cn2nc(C[C@@H]3C[C@@H](C(F)(F)F)CNC3=O)c(-c3cncnc3)cc2n1)C1CCC(F)(F)CC1` [Compound 9], the negative logarithm of the IC50 (pIC50) under setting [1] was less than 6.00.
`CCn1nccc1C(=O)N[C@H](c1cn2nc(C[C@H]3C[C@@H](C(F)(F)F)CNC3=O)c(C3CCOC(C)(C)C3)cc2n1)C1CCC(F)(F)CC1` (stereo partly drawn) [Compound 88]: the pIC50 under setting [2] was more than 7.00.
Take `CCn1nccc1C(=O)N[C@H](c1cn2nc(C[C@H]3C[C@@H](C(F)(F)F)CNC3=O)c(N3CCC(F)(F)CC3)cc2n1)C1CCC(F)(F)CC1` [Compound 19]: the pIC50 under setting [1] is more than 7.00.
For `CCn1nccc1C(=O)N[C@H](c1cn2nc(C[C@H]3C[C@@H](C(F)(F)F)CNC3=O)c(C3CCOC3)cc2n1)C1CCC(F)(F)CC1` (stereo partly drawn) [Compound 6], the pIC50 under setting [1] was more than 7.00.

Source of the values: patent US20260265259A1, “SUBSTITUTED 6-IMIDAZOPYRIDAZINE IL-17A MODULATORS AND USES THEREOF” (DICE ALPHA, INC., priority 2023, published 2026).
